Data reported in patent US8242089B2, “Sphingolipids polyalkylamine conjugates for use in transfection” (Yissum Research Development Company of the Hebrew …, priority 2003, dated 2012).

Test system: NIH 3T3 cells
Test: Methylene blue toxicity assay on NIH 3T3 cells
Format: cell-based
Conditions: amounts used in transfection, free assemblies or lipoplexes with luciferase plasmid, lipid/DNA charge ratios 1-16, chloride form
Procedure: Cytotoxicity was tested by the methylene blue (MB) staining assay [Elliott W M and Auersperg N. Biotech Histochem 68:29-35 (1993)]. In general, a known number of exponentially growing cells in 200 μL of medium were plated in 96-microwell, flat-bottomed plates. For each of the lipoplexes tested, 3 wells were used. Following 24 h of incubation in culture, 20 μL of different concentrations of various lipoplexes were added to each well containing untreated cells. Normal saline was added to the controls. Cells were exposed to lipoplex for 24 h. At the end of exposure the treated cells, as well as parallel control cells were washed and fixed by adding 50 μL of 2.5% glutaraldehyde to each well for 15 min. Fixed cells were rinsed 10 times with deionized water and once with borate buffer (0.1 M, pH 8.5), dried, and stained with MB (100 μL of 1% solution in 0.1 M borate buffer, pH 8.5) for 1 h at r. t. Stained cells were rinsed thoroughly with de-ionized water to remove any non-cell-bound dye and then dried. The MB bound to the fixed cells was extracted by incubation at 37° C. with 200 μL of 0.1 N HCl for 1 h, and the net optical density of the dye in each well was determined by a plate spectrophotometer (Labsystems Multyskan Bichromatic, Finland) at 620 nm.

`CCCCCCCCCCCCC/C=C/[C@@H](O)[C@H](COC(=O)NCCCNCCCCNCCCN)NC(=O)CCCCCCCCCCCCCCC` [CCS, N-palmitoyl D-erythro sphingosyl carbamoyl-spermine] was tested, and the “toxicity (living cells)” value was “non toxic”.
